Laboratory results published in patent US8114904B2, “Luminescence quenchers and fluorogenic probes for detection of reactive species” (Versitech Limited & Morningside Ventures Limited, priority 2008, dated 2012).

Assays:
[1] = UV-visible absorption spectrum; format: physicochemical; conditions: 1 μM solution, pH 7.4 0.1 M phosphate buffer, 0.1% DMF
Procedure: Compound 10 obtained in Example 4 was dissolved in pH 7.4 0.1 M phosphate buffer containing 0.1% DMF as cosolvent to form a 10 μM solution.
Compound 12 obtained in Example 5 was dissolved in pH 7.4 0.1 M phosphate buffer containing 0.1% DMF as cosolvent to form a 1 μM solution.
Compound 14 obtained in Example 6 was dissolved in pH 7.4 0.1 M phosphate buffer containing 0.1% DMF as cosolvent to form a 1 μM solution.
Compound 30 obtained in Example 7 was dissolved in pH 7.4 0.1 M phosphate buffer containing 0.1% DMF as cosolvent to form a 10 μM solution. The absorption spectrum of the 10 μM solution of Compound 30 was measured.

[2] = Emission spectra of the probe itself; format: physicochemical; conditions: 1 μM, 0.1 M phosphate buffer pH 7.4, excitation 515 nm, Hitachi F2500, 700 V
Procedure: Compound 10 obtained in Example 4 was dissolved in DMF to a concentration of 10 mM, and then the solution was diluted to 10 μM by 0.1 M phosphate buffer (pH 7.4). The fluorescence spectrum of the 10 μM solution of Compound 10 was measured using a Hitachi F2500 fluorescence spectrometer and the photomultiplier voltage was 700 V. The slit width was 2.5 nm for both excitation and emission. The measurement was carried out at an excitation wavelength of 520 nm. The results shown in FIG. 1 indicate that Compound 10 itself is non-fluorescent.
Compound 12 obtained in Example 5 was dissolved in DMF to a concentration of 1 mM, and then the solution was diluted to 1 μM by 0.1 M phosphate buffer (pH 7.4). The fluorescence spectrum of the 1 μM solution of Compound 12 was measured using a Hitachi F2500 fluorescence spectrometer and the photomultiplier voltage was 700 V. The slit width was 2.5 nm for both excitation and emission. The measurement was carried out at an excitation wavelength of 515 nm. The results shown in FIG. 4 indicate that Compound 12 itself is non-fluorescent.
Compound 14 obtained in Example 6 was dissolved in DMF to a concentration of 1 mM, and then the solution was diluted to 1 μM by 0.1 M phosphate buffer (pH 7.4). The fluorescence spectrum of the 1 μM solution of Compound 14 was measured using a Hitachi F2500 fluorescence spectrometer and the photomultiplier voltage was 700 V. The slit width was 2.5 nm for both excitation and emission. The measurement was carried out at an excitation wavelength of 515 nm. The results shown in FIG. 6 indicate that Compound 14 itself is non-fluorescent.
Compound 30 obtained in Example 7 was dissolved in DMF to a concentration of 10 mM, and then the solution was diluted to 10 μM by 0.1 M phosphate buffer (pH 7.4). The fluorescence spectrum of the 10 μM solution of Compound 30 was measured using a Hitachi F7000 fluorescence spectrometer and the photomultiplier voltage was 900 V. The slit width was 2.5 nm for both excitation and emission. The measurement was carried out at an excitation wavelength of 520 nm.

[3] = Detection of hypochlorite: fluorescence spectra after addition of NaOCl; conditions: 1 μM probe
Procedure: Compound 14 obtained in Example 6 was dissolved in DMF to a concentration of 1 mM, and then the solution was diluted to 1 μM by 0.1 M potassium phosphate buffer (pH 7.4). Commercial bleach was the source of NaOCl. The concentration of NaOCl was determined by titration with sodium thiosulfate solution which was standardized by the titration with KlO3. Then NaOCl was added to provide final concentrations of 0, 2, 3, 4, 5, 6, 7, and 8 μM. Fluorescence spectra of the solutions were measured after 5 minutes under the same conditions as mentioned above.

[4] = Comparison of specificity with different ROS and RNS; conditions: 1 μM probe in 0.1 M potassium phosphate buffer
Procedure: The reactivity of Compound 10 was compared toward different reactive oxygen species (ROS) and reactive nitrogen species (RNS), including OCl^−, H2O2, ^1O2, NO, O2^•−, ^•OH, ONOO^− and alkylperoxyl radical (ROO^•). Different reactive oxygen species and reactive nitrogen species were added independently to 5 mL of the solution of Compound 10 (10 μM in 0.1 M potassium phosphate buffer). The changes of fluorescence intensity before and after the treatment were measured. The reactive oxygen species and reactive nitrogen species were prepared as follows. • a. H2O2 (final 100 μM) was added and then stirred for 1 hour at 25° C. • b. (3-(1,4-Dihydro-1,4-epidioxy-1-naphthyl)propionic acid) (final 100 μM) was added and then stirred at 25° C. for 1 hour. • c. 2,2′-Azobis(2-amidinopropane)dihydrochloride (final 100 μM) was added and then stirred at 25° C. for 1 hour. • d. SNP (Sodium Nitroferricyanide (III) Dihydrate) (final 100 μM) was added and then stirred for 1 hour at 25° C. • e. O2^•− was generated by xanthine and xanthine oxidase. Xanthine oxidase was added firstly. After xanthine oxidase was dissolved, xanthine (final 100 μM) was added and the mixtures were stirred at 25° C. for 1 hour. • f. Ferrous chloride (final 10 μM) was added in the presence of 10 equivalences of H2O2 (100 μM). • g. ONOO^− (final 10 μM) was added at 25° C. • h. NaOCl (final 10 μM) was added at 25° C. Commercial bleach was the source of NaOCl.
The reactivity of Compound 12 was compared toward different reactive oxygen species (ROS) and reactive nitrogen species (RNS), including OCl^−, H2O2, ^1O2, NO, O2^•−, ^•OH, ONOO^− and alkylperoxyl radical (ROO^•). Different reactive oxygen species and reactive nitrogen species were added independently to 5 mL of the solution of Compound 12 (1 μM in 0.1 M potassium phosphate buffer). The changes of fluorescence intensity before and after the treatment were measured. The reactive oxygen species and reactive nitrogen species were prepared as follows: • i. H2O2 (final 100 μM) was added and then stirred for 1 hour at 25° C. • j. (3-(1,4-Dihydro-1,4-epidioxy-1-naphthyl)propionic acid) (final 100 μM) was added and then stirred at 25° C. for 1 hour. • k. 2,2′-Azobis(2-amidinopropane)dihydrochloride (final 100 μM) was added and then stirred at 25° C. for 1 hour. • l. SNP (Sodium Nitroferricyanide (III) Dihydrate) (final 100 μM) was added and then stirred for 1 hour at 25° C. • m. O2^•− was generated by xanthine and xanthine oxidase. Xanthine oxidase was added firstly. After xanthine oxidase was dissolved, xanthine (final 100 μM) was added and the mixtures were stirred at 25° C. for 1 hour. • n. Ferrous chloride (final 10 μM) was added in the presence of 10 equivalences of H2O2 (100 μM). • o. ONOO^− (final 10 μM) was added at 25° C. • p. NaOCl (final 10 μM) was added at 25° C. Commercial bleach was the source of NaOCl.
The reactivity of Compound 14 was compared toward different reactive oxygen species (ROS) and reactive nitrogen species (RNS), including OCl^−, H2O2, ^1O2, NO, O2^•−, ^•OH, ONOO^− and alkylperoxyl radical (ROO^•). Different reactive oxygen species and reactive nitrogen species were added independently to 5 mL of the corresponding solution of Compound 14 (1 μM in 0.1 M potassium phosphate buffer). The changes in fluorescence intensity before and after the treatment were measured. The reactive oxygen species and reactive nitrogen species were prepared as follows: • a. H2O2 (final 100 μM) was added and then stirred for 1 hour at 25° C. • b. (3-(1,4-Dihydro-1,4-epidioxy-1-naphthyl)propionic acid) (final 100 μM) was added and then stirred at 25° C. for 1 hour. • c. 2,2′-Azobis(2-amidinopropane)dihydrochloride (final 100 μM) was added and then stirred at 25° C. for 1 hour. • d. SNP (Sodium Nitroferricyanide (III) Dihydrate) (final 100 μM) was added and then stirred for 1 hour at 25° C. • e. O2^•− was generated by xanthine and xanthine oxidase. Xanthine oxidase was added firstly. […]

## CN(c1ccc(N)cc1)c1ccc2c(c1)Oc1cc(O)ccc1C21OC(=O)c2ccccc21 (stereo not drawn) [Compound 14]
[1]
  absorption maximum: about 515 nm
[2]
  fluorescence of the probe itself: non-fluorescent
[3]; 0.1 M potassium phosphate buffer pH 7.4
  fluorescence intensity at 535 nm with increasing concentration of hypochlorite: increases linearly
[3]; NaOCl 0-8 μM, 0.1 M potassium phosphate buffer pH 7.4, after 5 minutes, excitation 515 nm
  fluorescence intensity after the addition of hypochlorite: increase significantly
[4]
  reactivity among ROS and RNS in an abiotic system: much higher reactivity towards hypochlorite
[4]; 25° C.
  fluorescence enhancement by hypochlorite compared with any other ROS and RNS: much stronger fluorescence enhancement
